Numbers after ± are expanded uncertainties.

Among the data in the NIST ThermoML archive (doi:10.1016/j.jct.2008.12.009) are excess molar enthalpy values, retold here.

A short description of the data set: excess molar enthalpy (molar enthalpy of mixing); xn = mol fraction of the nth substance listed. The conditions noted are these: 101.33 kPa, Gas, Flow calorimetry, x1 = 0.5.

Consider `N#N` [nitrogen] + O, for which the excess molar enthalpy was 0.0129 ± 0.000382 kcal/mol (373.15 K); 0.0113 ± 0.000359 kcal/mol (383.15 K); 0.0101 ± 0.000359 kcal/mol (393.15 K); 0.00891 ± 0.000359 kcal/mol (403.15 K); 0.00803 ± 0.000359 kcal/mol (413.15 K); 0.00722 ± 0.000335 kcal/mol (423.15 K). The excess molar enthalpy came out at 0.00664 ± 0.000335 kcal/mol (433.15 K); 0.006 ± 0.000335 kcal/mol (443.15 K); 0.00547 ± 0.000335 kcal/mol (453.15 K); 0.00504 ± 0.000335 kcal/mol (463.15 K); 0.00471 ± 0.000335 kcal/mol (473.15 K); 0.0043 ± 0.000335 kcal/mol (483.15 K). Where the note is “493.15 K”, the excess molar enthalpy stood at 0.00402 ± 0.000335 kcal/mol.

For `O=O` [oxygen] + O, the excess molar enthalpy reads like this: (373.15 K) 0.0132 ± 0.000406 kcal/mol; (383.15 K) 0.0115 ± 0.000382 kcal/mol; (393.15 K) 0.0103 ± 0.000382 kcal/mol; (403.15 K) 0.00908 ± 0.000382 kcal/mol; (413.15 K) 0.00822 ± 0.000382 kcal/mol; (423.15 K) 0.00741 ± 0.000382 kcal/mol. For the same compound, the excess molar enthalpy turned out to be 0.00679 ± 0.000359 kcal/mol (433.15 K); 0.00619 ± 0.000359 kcal/mol (443.15 K); 0.00564 ± 0.000359 kcal/mol (453.15 K); 0.00516 ± 0.000359 kcal/mol (463.15 K); 0.00483 ± 0.000359 kcal/mol (473.15 K); 0.00449 ± 0.000359 kcal/mol (483.15 K). Moreover, the excess molar enthalpy (493.15 K) was determined as 0.00413 ± 0.000359 kcal/mol.
